Test results published in patent publication US20240343681A1, “MOLECULES HAVING PESTICIDAL UTILITY AND INTERMEDIATES AND PROCESSES RELATED THERETO” (priority 2021, published 2024).

Legend:
[1] = test system: Beet Armyworm (Spodoptera exigua, LAPHEG) second instar larva; assay: Bioassay on beet armyworm (BAW), 128-well diet tray assay; assay type: in vivo; details: 50 μg/cm^2 on artificial diet, 25° C., five days
Procedure: Example A: Bioassays on Beet Armyworm (Spodoptera exigua, LAPHEG) (“BAW”) and Cabbage Looper (Trichoplusia ni, TRIPNI) (“CL”)
Bioassays on BAW were conducted using a 128-well diet tray assay. One second instar BAW larva was placed in each well (8 wells total) of the diet tray that had been previously filled with 1 mL of artificial diet to which 50 μg/cm^2 of the test molecule (dissolved in 50 μL of 90:10 acetone-water mixture) had been applied (to each of eight wells) and then allowed to dry. Trays were covered with a clear self-adhesive cover, vented to allow gas exchange, and held at 25° C., 14:10 light-dark for five days. Percent mortality was recorded for the larvae in each well; activity in the eight wells was then averaged.

[2] = test system: Yellow Fever Mosquito (Aedes aegypti, AEDSAE) larvae; assay: Bioassay on yellow fever mosquito (YFM), 96-well plate larval assay; assay type: in vivo; details: 4000 ppm (master plate solution), about 1 day-old larvae, 3 days
Procedure: Example B: Bioassays on Yellow Fever Mosquito (Aedes aegypti, AEDSAE) (“YFM”)
Master plates containing 400 μg of a molecule dissolved in 100 μL of dimethyl sulfoxide (DMSO) (equivalent to a 4000 ppm solution) are used. A master plate of assembled molecules contains 15 μL per well. To this plate, 135 μL of a 90:10 water/acetone mixture is added to each well. A robot (Biomek® NXP Laboratory Automation Workstation) is programmed to dispense 15 μL aspirations from the master plate into an empty 96-well shallow plate (“daughter” plate). There are 6 reps (“daughter” plates) created per master. The created “daughter” plates are then immediately infested with YFM larvae.
The day before plates are to be treated, mosquito eggs are placed in Millipore water containing liver powder to begin hatching (4 g into 400 mL). After the “daughter” plates are created using the robot, they are infested with 220 μL of the liver powder/larval mosquito mixture (about 1 day-old larvae). After plates are infested with mosquito larvae, a non-evaporative lid is used to cover the plate to reduce drying. Plates are held at room temperature for 3 days prior to grading. After 3 days, each well is observed and scored based on mortality.

Compound	activity against BAW (percent mortality, averaged over eight wells) [1]	activity against YFM (scored based on mortality) [2]
COCC(=O)Nc1cccc(NC(=O)[C@H]2[C@H](c3cc(Cl)cc(Cl)c3)C2(Cl)Cl)c1 (racemic) [F4, trans-rac-2,2-Dichloro-3-(3,5-dichlorophenyl)-N-(3-(2-methoxyacetamido)phenyl)cyclopropane-1-carboxamide]	exhibited activity	exhibited activity
O=C(CCC(F)(F)F)Nc1cc(NC(=O)[C@H]2[C@H](c3cc(Cl)cc(Cl)c3)C2(Cl)Cl)ccc1Cl (racemic) [F7, trans-rac-2,2-dichloro-N-(4-chloro-3-(4,4,4-trifluorobutanamido)phenyl)-3-(3,5-dichlorophenyl)cyclopropane-1-carboxamide]	exhibited activity	exhibited activity
O=C(Nc1cc(NC(=O)[C@H]2[C@H](c3cc(Cl)cc(Cl)c3)C2(Cl)Cl)ccc1Cl)c1c(F)cccc1F (racemic) [F25, trans-rac-N-(2-Chloro-5-(2,2-dichloro-3-(3,5-dichlorophenyl)cyclopropane-1-carboxamido)phenyl)-2,6-difluorobenzamide]	exhibited activity	exhibited activity
O=C(Nc1cc(NC(=O)[C@H]2[C@H](c3cc(Cl)cc(Cl)c3)C2(Cl)Cl)ccc1Cl)c1ccccn1 (racemic) [F28, trans-rac-N-(2-chloro-5-(2,2-dichloro-3-(3,5-dichlorophenyl)cyclopropane-1-carboxamido)phenyl)picolinamide]		exhibited activity
O=C(Nc1cc(NC(=O)[C@H]2[C@H](c3cc(Cl)cc(Cl)c3)C2(Cl)Cl)ccc1Cl)c1ccno1 (racemic) [F35, trans-rac-N-(2-Chloro-5-(2,2-dichloro-3-(3,5-dichlorophenyl)cyclopropane-1-carboxamido)phenyl)isoxazole-5-carboxamide]	exhibited activity	exhibited activity
COCC(=O)Nc1cc(NC(=O)[C@H]2[C@H](c3cc(Cl)cc(Cl)c3)C2(Cl)Cl)ccc1Cl (racemic) [F39, trans-rac-2,2-Dichloro-N-(4-chloro-3-(2-methoxyacetamido)phenyl)-3-(3,5-dichlorophenyl)cyclopropane-1-carboxamide]	exhibited activity	exhibited activity
CCOC(C)C(=O)Nc1cc(NC(=O)C2C(c3cc(Cl)cc(Cl)c3)C2(Cl)Cl)ccc1Cl (racemic) [F40, trans-rac-2,2-dichloro-N-(4-chloro-3-(2-ethoxypropanamido)phenyl)-3-(3,5-dichlorophenyl)cyclopropane-1-carboxamide]	exhibited activity	exhibited activity
N#CCC(=O)Nc1cc(NC(=O)[C@H]2[C@H](c3cc(Cl)cc(Cl)c3)C2(Cl)Cl)ccc1Cl (racemic) [F42, trans-rac-2,2-Dichloro-N-(4-chloro-3-(2-cyanoacetamido)phenyl)-3-(3,5-dichlorophenyl)cyclopropanecarboxamide]	exhibited activity	exhibited activity
CCCC(=O)Nc1cc(NC(=O)[C@H]2[C@H](c3cc(Cl)cc(Cl)c3)C2(Cl)Cl)ccc1Cl (racemic) [F45, trans-rac-N-(3-Butyramido-4-chlorophenyl)-2,2-dichloro-3-(3,5-dichlorophenyl)cyclopropane-1-carboxamide]		exhibited activity
O=C(Cc1ccccc1)Nc1cc(NC(=O)[C@H]2[C@H](c3cc(Cl)cc(Cl)c3)C2(Cl)Cl)ccc1Cl (racemic) [F48, trans-rac-2,2-Dichloro-N-(4-chloro-3-(2-phenylacetamido)phenyl)-3-(3,5-dichlorophenyl)cyclopropane-1-carboxamide]	exhibited activity	exhibited activity
O=C(CN1CCOCC1)Nc1cc(NC(=O)[C@H]2[C@H](c3cc(Cl)cc(Cl)c3)C2(Cl)Cl)ccc1Cl (racemic) [F50, trans-rac-2,2-Dichloro-N-(4-chloro-3-(2-morpholinoacetamido)phenyl)-3-(3,5-dichlorophenyl)cyclopropane-1-carboxamide]	exhibited activity	exhibited activity
O=C(Nc1ccc(Cl)c(NC(=O)C(F)(F)F)c1)[C@H]1[C@H](c2cc(Cl)cc(Cl)c2)C1(Cl)Cl (racemic) [F53, trans-rac-2,2-dichloro-N-(4-chloro-3-(2,2,2-trifluoroacetamido)phenyl)-3-(3,5-dichlorophenyl)cyclopropane-1-carboxamide]	exhibited activity	exhibited activity
O=C(Nc1ccc(Cl)c(NC(=O)C(F)(F)Cl)c1)[C@H]1[C@H](c2cc(Cl)cc(Cl)c2)C1(Cl)Cl (racemic) [F54, trans-rac-2,2-Dichloro-N-(4-chloro-3-(2-chloro-2,2-difluoroacetamido)phenyl)-3-(3,5-dichlorophenyl)cyclopropane-1-carboxamide]	exhibited activity	exhibited activity
O=C(Nc1ccc(Cl)c(NC(=O)C(F)(F)C(F)(F)C(F)(F)F)c1)[C@H]1[C@H](c2cc(Cl)cc(Cl)c2)C1(Cl)Cl (racemic) [F56, trans-rac-2,2-Dichloro-N-(4-chloro-3-(2,2,3,3,4,4,4-heptafluorobutanamido)phenyl)-3-(3,5-dichlorophenyl)cyclopropane-1-carboxamide]	exhibited activity	exhibited activity
O=C(CC1CC1)Nc1cccc(NC(=O)[C@H]2[C@H](c3cc(Cl)cc(Cl)c3)C2(Cl)Cl)c1F [F21, (1R,3R)-2,2-Dichloro-N-(3-(2-cyclopropylacetamido)-2-fluorophenyl)-3-(3,5-dichlorophenyl)cyclopropane-1-carboxamide]		exhibited activity
Cc1cc(C#N)ccc1C(=O)Nc1cc(NC(=O)[C@H]2[C@H](c3ccc(Cl)c(Cl)c3)C2(Cl)Cl)ccc1Cl [F99, N-(2-Chloro-5-((1R,3R)-2,2-dichloro-3-(3,4-dichlorophenyl)cyclopropane-1-carboxamido)phenyl)-4-cyano-2-methylbenzamide]	exhibited activity	
CC(CC(=O)Nc1cc(NC(=O)[C@H]2[C@H](c3ccc(F)c(C(F)(F)F)c3)C2(Cl)Cl)ccc1Cl)C(F)(F)F (stereo partly drawn) [F102, (1R,3R)-2,2-Dichloro-N-(4-chloro-3-(4,4,4-trifluoro-3-methylbutanamido)phenyl)-3-(4-fluoro-3-(trifluoromethyl)phenyl)cyclopropane-1-carboxamide]	exhibited activity	
Nc1c(F)ccc(C(=O)Nc2cc(NC(=O)[C@H]3[C@H](c4ccc(F)c(C(F)(F)F)c4)C3(Cl)Cl)ccc2Cl)c1F [F103, 3-amino-N-(2-chloro-5-((1R,3R)-2,2-dichloro-3-(4-fluoro-3-(trifluoromethyl)phenyl)cyclopropane-1-carboxamido)phenyl)-2,4-difluorobenzamide]	exhibited activity	
O=C(Nc1cc(NC(=O)[C@H]2[C@H](c3ccc(F)c(C(F)(F)F)c3)C2(Cl)Cl)ccc1Cl)c1ccc(F)c(NC(=O)C(F)F)c1F [F104, N-(2-chloro-5-((1R,3R)-2,2-dichloro-3-(4-fluoro-3-(trifluoromethyl)phenyl)cyclopropane-1-carboxamido)phenyl)-3-(2,2-difluoroacetamido)-2,4-difluorobenzamide]	exhibited activity	
COCC(=O)Nc1c(F)ccc(C(=O)Nc2cc(NC(=O)[C@H]3[C@H](c4ccc(F)c(C(F)(F)F)c4)C3(Cl)Cl)ccc2Cl)c1F [F105, N-(2-chloro-5-((1R,3R)-2,2-dichloro-3-(4-fluoro-3-(trifluoromethyl)phenyl)cyclopropane-1-carboxamido)phenyl)-2,4-difluoro-3-(2-methoxyacetamido)benzamide]	exhibited activity	
O=C(Nc1cc(NC(=O)[C@@H]2[C@@H](c3ccc(F)c(C(F)(F)F)c3)C2(Cl)Cl)ccc1Cl)c1cnc(F)c(F)c1 [F110, N-(2-Chloro-5-((1S,3S)-2,2-dichloro-3-(4-fluoro-3-(trifluoromethyl)phenyl)cyclopropane-1-carboxamido)phenyl)-5,6-difluoronicotinamide]	exhibited activity	
